What all share (experiment): In Vitro Enzymatic Assay
What all share (conditions): 25 °C

The target in experiment [1] is Protein arginine N-methyltransferase 5 (Homo sapiens, UniProt O14744). On the procedure:
(§1) All in vitro enzymatic assays were carried out by Shanghai ChemPartner Co. (998 Halei Road, Pudong New Area, Shanghai, 201203, China). To measure the IC50 values, 10 concentrations of the target compound were tested. Compounds were prepared as10 mM stock in DMSO and diluted to final concentration in DMSO when needed. The PRMT enzymes and substrates were incubated with indicated concentrations of compounds in a 384-well plate for 60 min at room temperature. After the reaction, acceptor and donor solutions were added to label the residual substrates of PRMT enzymes. The labeling process was lasting for 60 min at room temperature, followedby the reading end-point with Enspire with alpha mode.

For experiment [2], the target named is T1, Protein arginine N-methyltransferase 1 [11-371] (Homo sapiens, UniProt Q99873).
T1 construct: 11-371
On the procedure:
as §1

Experiment [3] concerns the target T2, Histone-arginine methyltransferase CARM1 (Homo sapiens, UniProt Q86X55).
T2 sequence (Q86X55 whole entry): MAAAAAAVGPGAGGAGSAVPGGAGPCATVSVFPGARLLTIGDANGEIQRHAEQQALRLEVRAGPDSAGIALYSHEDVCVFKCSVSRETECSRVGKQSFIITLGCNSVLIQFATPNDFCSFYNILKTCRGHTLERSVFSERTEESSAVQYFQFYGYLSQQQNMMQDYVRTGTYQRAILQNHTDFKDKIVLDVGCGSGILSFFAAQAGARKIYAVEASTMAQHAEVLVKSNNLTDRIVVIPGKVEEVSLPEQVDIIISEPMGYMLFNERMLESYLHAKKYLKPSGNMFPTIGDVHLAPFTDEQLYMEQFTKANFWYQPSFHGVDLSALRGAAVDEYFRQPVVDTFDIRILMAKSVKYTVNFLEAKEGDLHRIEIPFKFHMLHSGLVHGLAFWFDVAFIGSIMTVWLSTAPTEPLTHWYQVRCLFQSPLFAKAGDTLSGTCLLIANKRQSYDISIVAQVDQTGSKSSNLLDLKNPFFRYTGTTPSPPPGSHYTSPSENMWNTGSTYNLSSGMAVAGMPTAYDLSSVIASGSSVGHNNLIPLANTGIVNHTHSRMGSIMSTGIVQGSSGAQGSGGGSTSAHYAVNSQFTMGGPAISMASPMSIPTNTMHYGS
On the procedure: as §1

Experiment [4] addresses Protein arginine N-methyltransferase 3 [N508S] (Homo sapiens, UniProt O60678, N508S). On the procedure: as §1
The target of experiment [5] is Protein arginine N-methyltransferase 8 (Homo sapiens, UniProt Q9NR22). The procedure:
as §1

Experiment [6] addresses T3, Protein arginine N-methyltransferase 7 (Homo sapiens, UniProt Q9NVM4).
T3 sequence (Q9NVM4 whole entry): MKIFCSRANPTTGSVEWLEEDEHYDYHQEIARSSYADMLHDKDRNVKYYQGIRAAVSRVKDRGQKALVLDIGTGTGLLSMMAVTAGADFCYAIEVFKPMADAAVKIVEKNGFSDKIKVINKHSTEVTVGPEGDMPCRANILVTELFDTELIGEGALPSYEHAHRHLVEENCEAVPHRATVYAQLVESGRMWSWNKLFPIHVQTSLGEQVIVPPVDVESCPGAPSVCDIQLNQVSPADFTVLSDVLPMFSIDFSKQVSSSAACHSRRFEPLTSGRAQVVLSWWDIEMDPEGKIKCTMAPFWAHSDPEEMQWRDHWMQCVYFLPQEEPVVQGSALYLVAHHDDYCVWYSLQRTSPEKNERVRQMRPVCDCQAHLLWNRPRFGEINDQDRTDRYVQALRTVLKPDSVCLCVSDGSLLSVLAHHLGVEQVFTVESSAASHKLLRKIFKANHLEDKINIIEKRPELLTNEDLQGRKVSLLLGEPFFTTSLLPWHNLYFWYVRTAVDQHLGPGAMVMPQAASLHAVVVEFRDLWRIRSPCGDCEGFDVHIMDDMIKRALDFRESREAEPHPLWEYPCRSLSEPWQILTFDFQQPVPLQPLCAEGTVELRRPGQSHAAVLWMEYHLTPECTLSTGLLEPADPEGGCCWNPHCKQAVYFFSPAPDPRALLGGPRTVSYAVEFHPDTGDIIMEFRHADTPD
The procedure: as §1

Experiment [7] addresses Protein arginine N-methyltransferase 6 (Homo sapiens, UniProt Q96LA8). The procedure:
as §1

One may read the pIC50 as −log10 of the IC50, conventionally taken in molar units. The low end stands for a large IC50, the high end for a small IC50.

Structures are written as SMILES. pIC50: −log10 of the molar value.

Protein arginine N-methyltransferase 5, sequence (O14744 whole entry): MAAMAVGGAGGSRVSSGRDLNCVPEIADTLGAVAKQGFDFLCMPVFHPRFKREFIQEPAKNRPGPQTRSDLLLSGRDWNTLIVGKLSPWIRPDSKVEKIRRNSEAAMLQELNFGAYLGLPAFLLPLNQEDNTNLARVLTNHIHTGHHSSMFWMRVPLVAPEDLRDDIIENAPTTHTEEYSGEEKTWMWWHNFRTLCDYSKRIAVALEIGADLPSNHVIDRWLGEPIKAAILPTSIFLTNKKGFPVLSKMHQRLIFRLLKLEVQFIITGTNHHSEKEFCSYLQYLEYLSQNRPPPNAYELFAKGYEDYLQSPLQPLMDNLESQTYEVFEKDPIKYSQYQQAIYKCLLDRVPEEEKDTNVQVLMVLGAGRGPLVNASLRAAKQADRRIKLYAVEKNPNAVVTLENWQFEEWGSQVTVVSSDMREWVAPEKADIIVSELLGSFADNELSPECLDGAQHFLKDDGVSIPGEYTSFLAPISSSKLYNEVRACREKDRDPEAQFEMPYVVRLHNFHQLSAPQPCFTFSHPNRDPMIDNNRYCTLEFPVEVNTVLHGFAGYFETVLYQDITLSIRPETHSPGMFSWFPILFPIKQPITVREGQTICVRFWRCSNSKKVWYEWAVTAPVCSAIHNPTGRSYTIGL
T1 sequence (Q99873 11-371): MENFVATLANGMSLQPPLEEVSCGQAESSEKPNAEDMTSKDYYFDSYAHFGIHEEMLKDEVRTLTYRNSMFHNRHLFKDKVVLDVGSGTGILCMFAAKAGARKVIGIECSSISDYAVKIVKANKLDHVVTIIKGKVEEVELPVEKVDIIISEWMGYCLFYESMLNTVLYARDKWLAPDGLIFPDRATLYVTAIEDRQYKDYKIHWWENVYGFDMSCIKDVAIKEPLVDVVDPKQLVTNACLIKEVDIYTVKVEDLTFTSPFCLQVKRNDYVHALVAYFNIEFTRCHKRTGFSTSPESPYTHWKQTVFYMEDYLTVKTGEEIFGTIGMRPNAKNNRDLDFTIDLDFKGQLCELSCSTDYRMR
Protein arginine N-methyltransferase 8, sequence (Q9NR22 whole entry): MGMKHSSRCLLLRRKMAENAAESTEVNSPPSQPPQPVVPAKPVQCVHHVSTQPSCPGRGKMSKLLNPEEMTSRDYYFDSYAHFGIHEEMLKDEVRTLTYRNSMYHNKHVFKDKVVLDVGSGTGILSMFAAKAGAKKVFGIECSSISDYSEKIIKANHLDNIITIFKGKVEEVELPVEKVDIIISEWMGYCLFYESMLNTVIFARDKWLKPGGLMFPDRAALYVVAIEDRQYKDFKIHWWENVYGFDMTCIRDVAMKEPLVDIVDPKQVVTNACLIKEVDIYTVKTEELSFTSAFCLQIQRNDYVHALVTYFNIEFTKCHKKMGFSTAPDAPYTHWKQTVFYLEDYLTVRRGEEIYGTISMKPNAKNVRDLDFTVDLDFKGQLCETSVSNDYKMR
Protein arginine N-methyltransferase 6, sequence (Q96LA8 whole entry): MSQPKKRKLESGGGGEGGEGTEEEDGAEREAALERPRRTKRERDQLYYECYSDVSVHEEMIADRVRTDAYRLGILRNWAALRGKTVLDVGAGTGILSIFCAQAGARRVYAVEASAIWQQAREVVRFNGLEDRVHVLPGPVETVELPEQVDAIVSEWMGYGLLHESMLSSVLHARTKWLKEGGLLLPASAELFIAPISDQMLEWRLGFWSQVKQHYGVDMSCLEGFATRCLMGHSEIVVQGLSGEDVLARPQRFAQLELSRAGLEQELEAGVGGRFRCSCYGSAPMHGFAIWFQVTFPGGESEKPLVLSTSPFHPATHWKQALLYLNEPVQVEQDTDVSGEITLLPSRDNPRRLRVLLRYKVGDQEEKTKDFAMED
Protein arginine N-methyltransferase 3 [N508S], sequence (O60678 2-531 N508S limits assumed): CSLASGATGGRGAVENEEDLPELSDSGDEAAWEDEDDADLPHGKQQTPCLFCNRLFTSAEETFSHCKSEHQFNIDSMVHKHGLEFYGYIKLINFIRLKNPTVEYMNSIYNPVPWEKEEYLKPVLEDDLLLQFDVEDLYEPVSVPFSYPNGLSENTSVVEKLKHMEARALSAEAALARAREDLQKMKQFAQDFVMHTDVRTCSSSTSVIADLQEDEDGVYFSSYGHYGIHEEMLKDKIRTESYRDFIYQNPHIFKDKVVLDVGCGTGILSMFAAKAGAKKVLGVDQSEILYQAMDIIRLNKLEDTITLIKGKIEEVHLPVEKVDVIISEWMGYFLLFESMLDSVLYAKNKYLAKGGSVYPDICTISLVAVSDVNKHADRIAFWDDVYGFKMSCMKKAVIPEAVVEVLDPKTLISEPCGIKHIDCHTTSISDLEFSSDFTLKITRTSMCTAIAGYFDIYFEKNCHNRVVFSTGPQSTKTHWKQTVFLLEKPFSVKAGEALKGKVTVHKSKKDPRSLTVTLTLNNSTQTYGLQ

Compound `NC(=O)N/N=C/c1cccc(-c2ccc(Cl)cc2)c1` [2-((4′-chloro-[1,1′-biphenyl]-3-yl)methylene)hydrazinecarboxamide (9b)] gave a pIC50 in experiment [1] of 5.42.
As for `NC(=O)N/N=C/c1ccc(-c2ccc(Cl)cc2N)o1` [2-((5-(2-amino-4-chlorophenyl)furan-2-yl)methylene)hydrazinecarboxamide (4m)], in experiment [1], the pIC50 is 4.89.
In turn, `NC(=O)N/N=C/c1ccc(-c2cccc(F)c2)o1` [2-((5-(3-fluorophenyl)furan-2-yl)methylene)hydrazinecarboxamide (4d)] had a pIC50 in experiment [1] of 4.85.
Still for that read-out and setting: next, `NC(=O)N/N=C/c1ccc(-c2ccc(N)cc2)o1` [2-((5-(4-aminophenyl)furan-2-yl)methylene)hydrazinecarboxamide (4j)]: 4.40; `NC(=O)N/N=C/c1cncc(-c2ccc(Cl)cc2)c1` [2-((5-(4-chlorophenyl)pyridin-3-yl)methylene)hydrazinecarboxamide (9f)]: 5.16; `NC(=O)N/N=C/c1ccc(-c2ccc(F)cc2)o1` [2-((5-(4-fluorophenyl)furan-2-yl)methylene)hydrazinecarboxamide (4e)]: 4.92.
Same read-out and setting: next, `COc1ccc(-c2ccc(/C=N/NC(N)=O)o2)cc1` [2-((5-(4-methoxyphenyl)furan-2-yl)methylene)hydrazinecarboxamide (4h)]: 5.68; `NC(=O)N/N=C/c1ccc(-c2ccc([N+](=O)[O-])cc2)o1` [2-((5-(4-nitrophenyl)furan-2-yl)methylene)hydrazinecarboxamide (4g)]: 4.74.
In the case of `NC(=O)N/N=C/c1ccc(-c2ccccc2)o1` [2-((5-phenylfuran-2-yl)methylene)hydrazinecarboxamide (4a)], the pIC50 in experiment [1] is 4.92.
In experiment [1], `NC(=O)N/N=C/c1cccc(-c2ccc(Cl)cc2)n1` [2-((6-(4-chlorophenyl)pyridin-2-yl)methylene)hydrazinecarboxamide (9g)] showed a pIC50 of 5.46.
Take `O=C1NC(=S)NC(=O)C1=Cc1ccc(-c2ccc(Cl)cc2)o1` [5-{[5-(4-chlorophenyl)furan-2-yl]methylidene}-2-sulfanylidene-1,3-diazinane-4,6-dione]: the negative-log IC50 (pIC50) in experiment [1] was 4.17.
Turning to `NC(=O)N/N=C/c1ccc(-c2ccc(Cl)cc2)o1` [P5i-6], the negative-log IC50 (pIC50) in experiment [2], in experiment [3], in experiment [4], in experiment [5], in experiment [6] and in experiment [7] was under 4.00 in each case.
In experiment [1], `NC(=S)N/N=C/c1ccc(-c2ccc(Cl)cc2)o1` [P5i-7] showed a pIC50 of 6.14.

The values are drawn from BindingDB's records for doi:10.1111/cbdd.12881 (Sichuan University, 2017).
